Tests used:
Experiment in all cases: cells
CTB-1 = type: functional, cell-based, Homo sapiens; details: Homo sapiens, CTB-1
Description: SANGER: Inhibition of human CTB-1 cell growth in a cell viability assay.

Calu-6 = type: functional, cell-based, Homo sapiens; details: Homo sapiens, Calu-6;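 note: growth of human Calu-6 cells, read out by a cell viability assay, IC50 marking inhibition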
Description: SANGER: Inhibition of human Calu-6 cell growth in a cell viability assay.

D283 Med = type: functional, cell-based, Homo sapiens; details: Homo sapiens, D283 Med
Description: SANGER: Inhibition of human D-283MED cell growth in a cell viability assay.

DJM-1 = type: functional, cell-based, Homo sapiens; details: Homo sapiens, DJM-1;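 note: growth inhibition of human DJM-1 cells, read out by a cell viability assay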
Description: SANGER: Inhibition of human DJM-1 cell growth in a cell viability assay.

DOHH-2 = type: functional, cell-based, Homo sapiens; details: Homo sapiens, DOHH-2;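 note: growth inhibition of human DOHH-2 cells, read out with a cell viability assay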
Description: SANGER: Inhibition of human DOHH-2 cell growth in a cell viability assay.

EW-1 = type: functional, cell-based, Homo sapiens; details: Homo sapiens, EW-1
Description: SANGER: Inhibition of human EW-1 cell growth in a cell viability assay.

EW-11 = type: functional, cell-based, Homo sapiens; details: Homo sapiens, EW-11;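 note: growth inhibition of human EW-11 cells, measured with a cell viability assay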
Description: SANGER: Inhibition of human EW-11 cell growth in a cell viability assay.

HL-60 = type: functional, cell-based, Homo sapiens; details: Homo sapiens, HL-60;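 note: growth inhibition of human HL-60 cells, read out with a cell viability assay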
Description: SANGER: Inhibition of human HL-60 cell growth in a cell viability assay.

HT = type: functional, cell-based, Homo sapiens; details: Homo sapiens, HT
Description: SANGER: Inhibition of human HT cell growth in a cell viability assay.

HT-144 = type: functional, cell-based, Homo sapiens; details: Homo sapiens, HT-144
Description: SANGER: Inhibition of human HT-144 cell growth in a cell viability assay.

JVM-2 = type: functional, cell-based, Homo sapiens; details: Homo sapiens, JVM-2;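 note: growth inhibition of JVM-2 cells determined by a cell viability assay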
Description: SANGER: Inhibition of human JVM-2 cell growth in a cell viability assay.

KARPAS-45 = type: functional, cell-based, Homo sapiens; details: Homo sapiens, KARPAS-45;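 note: inhibition of cell line growth, read out through a viability assay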
Description: SANGER: Inhibition of human KARPAS-45 cell growth in a cell viability assay.

KINGS-1 = type: functional, cell-based, Homo sapiens; details: Homo sapiens, KINGS-1;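 note: cell viability assay measuring suppression of KINGS-1 cell growth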
Description: SANGER: Inhibition of human KINGS-1 cell growth in a cell viability assay.

KNS-42 = type: functional, cell-based; details: Homo sapiens;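 note: growth inhibition of KNS-42 cells, read out with a cell viability assay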
Description: SANGER: Inhibition of human KNS-42 cell growth in a cell viability assay.

LOX IMVI = type: functional, cell-based, Homo sapiens; details: Homo sapiens, LOX IMVI
Description: SANGER: Inhibition of human LOXIMVI cell growth in a cell viability assay.

Lu-65 = type: functional, cell-based, Homo sapiens; details: Homo sapiens, Lu-65;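 note: growth inhibition of Lu-65 cancer cells, read out by a cell viability assay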
Description: SANGER: Inhibition of human LU-65 cell growth in a cell viability assay.

MEG-01 = type: functional, cell-based, Homo sapiens; details: Homo sapiens, MEG-01;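 note: growth inhibition of MEG-01 cells, read out by a cell viability assay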
Description: SANGER: Inhibition of human MEG-01 cell growth in a cell viability assay.

MZ2-MEL = type: functional, cell-based, Homo sapiens; details: Homo sapiens, MZ2-MEL;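 note: growth inhibition of MZ2-MEL cells read out with a cell viability assay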
Description: SANGER: Inhibition of human MZ2-MEL cell growth in a cell viability assay.

NCI-H1092 = type: functional, cell-based, Homo sapiens; details: Homo sapiens, NCI-H1092;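 note: cell growth inhibition measured with a cell viability assay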
Description: SANGER: Inhibition of human NCI-H1092 cell growth in a cell viability assay.

NCI-H1155 = type: functional, cell-based, Homo sapiens; details: Homo sapiens, NCI-H1155;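 note: cell growth inhibition measured by a viability assay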
Description: SANGER: Inhibition of human NCI-H1155 cell growth in a cell viability assay.

NCI-H1581 = type: functional, cell-based, Homo sapiens; details: Homo sapiens, NCI-H1581;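 note: cell growth inhibition read out by a viability assay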
Description: SANGER: Inhibition of human NCI-H1581 cell growth in a cell viability assay.

NCI-H2126 = type: functional, cell-based, Homo sapiens; details: Homo sapiens, NCI-H2126;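 note: growth inhibition of the cancer cell line, determined with a cell viability readout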
Description: SANGER: Inhibition of human NCI-H2126 cell growth in a cell viability assay.

NCI-H23 = type: functional, cell-based, Homo sapiens; details: Homo sapiens, NCI-H23;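 note: cell viability assay measuring growth inhibition of NCI-H23 cells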
Description: SANGER: Inhibition of human NCI-H23 cell growth in a cell viability assay.

NCI-H446 = type: functional, cell-based, Homo sapiens; details: Homo sapiens, NCI-H446;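 note: growth inhibition of NCI-H446 cells determined by a cell viability assay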
Description: SANGER: Inhibition of human NCI-H446 cell growth in a cell viability assay.

NCI-H69 = type: functional, cell-based, Homo sapiens; details: Homo sapiens, NCI-H69;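 note: growth inhibition of the cell line, read out with a cell viability assay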
Description: SANGER: Inhibition of human NCI-H69 cell growth in a cell viability assay.

NCI-H82 = type: functional, cell-based, Homo sapiens; details: Homo sapiens, NCI-H82;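 note: growth inhibition of NCI-H82 cells, measured with a cell viability readout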
Description: SANGER: Inhibition of human NCI-H82 cell growth in a cell viability assay.

SNU-5 = type: functional, cell-based, Homo sapiens; details: Homo sapiens, SNU-5;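 note: cell viability readout used to measure growth inhibition in human NCI-SNU-5 cells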
Description: SANGER: Inhibition of human NCI-SNU-5 cell growth in a cell viability assay.

NKM-1 = type: functional, cell-based, Homo sapiens; details: Homo sapiens, NKM-1;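 note: growth inhibition of NKM-1 cells, read out with a cell viability assay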
Description: SANGER: Inhibition of human NKM-1 cell growth in a cell viability assay.

OMC-1 = type: functional, cell-based, Homo sapiens; details: Homo sapiens, OMC-1;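 note: growth inhibition of the OMC-1 cell line, measured by a cell viability assay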
Description: SANGER: Inhibition of human OMC-1 cell growth in a cell viability assay.

P30-OHK = type: functional, cell-based, Homo sapiens; details: Homo sapiens, P30-OHK;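 note: growth inhibition of the P30-OHK cell line, read out with a cell viability assay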
Description: SANGER: Inhibition of human P30-OHK cell growth in a cell viability assay.

PSN1 = type: functional, cell-based, Homo sapiens; details: Homo sapiens, PSN1;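 note: suppression of growth of human PSN1 cells, read out by a cell viability assay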
Description: SANGER: Inhibition of human PSN1 cell growth in a cell viability assay.

RCC10RGB = type: functional, cell-based, Homo sapiens; details: Homo sapiens, RCC10RGB;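 note: growth inhibition of human RCC10RGB cells, read out by a cell viability assay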
Description: SANGER: Inhibition of human RCC10RGB cell growth in a cell viability assay.

RPMI-8226 = type: functional, cell-based, Homo sapiens; details: Homo sapiens, RPMI-8226
Description: SANGER: Inhibition of human RPMI-8226 cell growth in a cell viability assay.

SBC-1 = type: functional, cell-based, Homo sapiens; details: Homo sapiens, SBC-1;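 note: cell viability assay measuring growth inhibition of the SBC-1 cell line, IC50 being the concentration that halves growth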
Description: SANGER: Inhibition of human SBC-1 cell growth in a cell viability assay.

SK-MEL-1 = type: functional, cell-based, Homo sapiens; details: Homo sapiens, SK-MEL-1;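 note: growth inhibition of human SK-MEL-1 cells, read out by a cell viability assay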
Description: SANGER: Inhibition of human SK-MEL-1 cell growth in a cell viability assay.

SK-N-DZ = type: functional, cell-based, Homo sapiens; details: Homo sapiens, SK-N-DZ; read-out: IC50;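 note: growth inhibition of the cancer cell line, read out through a viability assay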
Description: SANGER: Inhibition of human SK-N-DZ cell growth in a cell viability assay.

SK-UT-1 = type: functional, cell-based, Homo sapiens; details: Homo sapiens, SK-UT-1;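 note: growth inhibition of SK-UT-1 cells, measured by a cell viability assay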
Description: SANGER: Inhibition of human SK-UT-1 cell growth in a cell viability assay.

SW 954 = type: functional, cell-based, Homo sapiens; details: Homo sapiens, SW 954;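 note: growth inhibition of SW954 human cancer cells, read out as cell viability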
Description: SANGER: Inhibition of human SW954 cell growth in a cell viability assay.

A3-KAW = type: functional, cell-based, Homo sapiens; details: Homo sapiens, A3-KAW;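 note: growth inhibition of human A3-KAW cells, read out with a cell viability assay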
Description: SANGER: Inhibition of human A3-KAW cell growth in a cell viability assay.

A388 = type: functional, cell-based; details: Homo sapiens;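 note: growth inhibition of human A388 cells, read out with a cell viability assay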
Description: SANGER: Inhibition of human A388 cell growth in a cell viability assay.

ALL-PO = type: functional, cell-based, Homo sapiens; details: Homo sapiens, ALL-PO;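 note: growth inhibition of ALL-PO cells, read out by a cell viability assay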
Description: SANGER: Inhibition of human ALL-PO cell growth in a cell viability assay.

BV-173 = type: functional, cell-based, Homo sapiens; details: Homo sapiens, BV-173
Description: SANGER: Inhibition of human BV-173 cell growth in a cell viability assay.

TE-10 = type: functional, cell-based, Homo sapiens; details: Homo sapiens, TE-10;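 note: growth inhibition of TE-10 cells, measured by a cell viability assay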
Description: SANGER: Inhibition of human TE-10 cell growth in a cell viability assay.

TE-8 = type: functional, cell-based, Homo sapiens; details: Homo sapiens, TE-8;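 note: growth inhibition of TE-8 cells, measured with a cell viability readout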
Description: SANGER: Inhibition of human TE-8 cell growth in a cell viability assay.

TGBC1TKB = type: functional, cell-based, Homo sapiens; details: Homo sapiens, TGBC1TKB;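 note: growth inhibition of TGBC1TKB cells, read out by a cell viability assay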
Description: SANGER: Inhibition of human TGBC1TKB cell growth in a cell viability assay.

VA-ES-BJ = type: functional, cell-based, Homo sapiens; details: Homo sapiens, VA-ES-BJ;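 note: growth inhibition of the VA-ES-BJ cell line, read out by a cell viability assay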
Description: SANGER: Inhibition of human VA-ES-BJ cell growth in a cell viability assay.

EKVX = type: functional, cell-based, Homo sapiens; details: Homo sapiens, EKVX;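 note: growth inhibition of human EKVX cells, read out with a cell viability assay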
Description: SANGER: Inhibition of human EKVX cell growth in a cell viability assay.

HD-MY-Z = type: functional, cell-based, Homo sapiens; details: Homo sapiens, HD-MY-Z;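 note: growth inhibition of HD-MY-Z cells, read out with a cell viability assay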
Description: SANGER: Inhibition of human HD-MY-Z cell growth in a cell viability assay.

NEC8 = type: functional, cell-based, Homo sapiens; details: Homo sapiens, NEC8;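 note: growth inhibition of human NEC8 cells, read out by a cell viability assay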
Description: SANGER: Inhibition of human NEC8 cell growth in a cell viability assay.

Measured: IC50

O=C1NC(=O)c2c1c(-c1ccccc1Cl)cc1[nH]c3ccc(O)cc3c21
242 nM: CTB-1
1910 nM: P30-OHK
338 nM: EW-1
516 nM: A3-KAW
1500 nM: VA-ES-BJ
434 nM: BV-173
213 nM: SW 954
not listed: EKVX | HD-MY-Z | NEC8
> 2000 nM: all other assays above

O=C(NCCCNc1nc(Nc2cccc(NC(=O)N3CCCC3)c2)ncc1I)c1cccs1 [BX-795]
4930 nM: NCI-H446
3700 nM: KINGS-1
2690 nM: NCI-H1155
1040 nM: D283 Med
2540 nM: HL-60
496 nM: P30-OHK
1060 nM: ALL-PO
3870 nM: HD-MY-Z
731 nM: A3-KAW
2400 nM: CTB-1
2290 nM: SK-UT-1
3440 nM: SW 954
1510 nM: LOX IMVI
1460 nM: DOHH-2
2790 nM: PSN1
3550 nM: TE-8
362 nM: NKM-1
985 nM: VA-ES-BJ
not listed: JVM-2 | KARPAS-45 | Lu-65 | NCI-H69 | SNU-5 | SBC-1 | BV-173
> 5000 nM: all other assays above

CO[C@@H]1[C@H](N(C)C(=O)c2ccccc2)C[C@H]2O[C@]1(C)n1c3ccccc3c3c4c(c5c6ccccc6n2c5c31)C(=O)NC4 [MIDOSTAURIN]
330 nM: SK-UT-1
> 512 nM: DOHH-2 | KARPAS-45 | Lu-65 | TE-8 | TGBC1TKB
